Results on five compounds are retold here after US20260098019A1, “SYNTHESIS OF NSAID CONJUGATES AS ANTI-INFLAMMATORY AGENTS USING THE MOLECULAR HYBRIDIZATION” (AUGUSTA UNIVERSITY RESEARCH INSTITUTE, INC., priority 2022, published 2026).

Where two headings read alike, the source gives them in different places. Marks after values point to notes of the source that are not given here.

Data set [1] concerns acetic acid-induced writhing. Kind of data set: acetic acid-induced writhing test (peripheral analgesic). The settings on record: for Potency: % inhibition/protection compared to indomethacin; for % Inhibition/protection: vs control; for 1/(observed property): 1/(% inhibition) peripheral analgesic; for Observed property: % inhibition/protection peripheral analgesic. Format: in vivo, albino mice. The method, then:
Peripheral analgesic activity was measured by the standard acetic acid-induced writhing test in mice. […] One hour after the i.p. administration, each mouse was injected with 0.1 ml of 1% acetic acid solution i.p. The control group animals were given sterile/distilled water with few drops of Tween 80. Starting 5 min after the acetic acid injection, the number of muscular contractions in each mouse was counted for 30 min. A significant reduction in the number of writhing by a conjugate compared with control animals was considered as a positive analgesic response. Percentage protection was calculated according to equ. (3), where n is the average number of writhing in the control group and n′ is the average number of writhing in the treated group. The % potency was calculated by equ. (4) (Table 2).
In general terms: Writhing tests count abdominal constrictions after an irritant is injected.

Data set [2] relates to hot plate latency. The experiment in a line: hot plate test (central analgesic). The settings on record: for Latency period ± SE: 10 mg/kg indomethacin mol equivalent i.p., cutoff 15 seconds; for % Protection: vs control; for Potency: at 120 min. compared to indomethacin; for Observed property: % Protection central analgesic (120 min). The data set is classed as in vivo, albino mice. As to the method: An in vivo standard hot plate test was performed. […] The control group animals were given sterile/distilled water with few drops of Tween 80. The maximum cutoff time was 15 seconds to prevent tissue damage. Response latencies were measured at 30, 60, 90 and 120 inns. The % protection was calculated by equ. (5), where, Ti, To are the latency time mean of the tested compound and control group respectively (Table 3).
(Thermal pain tests record how soon the animal reacts.)

The nature of data set [3]: toxicological bioassay. The settings on record: 50 mg/kg indomethacin mol equivalent (5 folds of anti-inflammatory dose); 24 h post-administration. The method, then:
Albino mice weighing 20-25 g were divided into 6 groups of 6 mice each. […] The toxic symptoms and mortality rates were recorded 24 h post-administration in each group.
Five times of the anti-inflammatory dose was orally administrated.

Data set [4] deals with COX-1 (UniProt P05979). The data set is classed as biochemical, human. The conditions noted are these: ± SD. The text has this:
(§1) Rev. […] Thromb. Vasc. […] Rev. […] Rev. […] Rev. Oncol. Hematol. […] Curr. Pharm. Des. […] Luong, et al., Nat. Struct. […] A. and Marnett, L. J., Chem. Rev. […] Drug Discov. […] Biomol.

In data set [5] the target is T1, COX-2 (Homo sapiens, UniProt P35354).
T1 construct: purchased BioVision Incorporated K547-100 and K548-100 (for COX-1/2)
T1 sequence (P35354 18-604): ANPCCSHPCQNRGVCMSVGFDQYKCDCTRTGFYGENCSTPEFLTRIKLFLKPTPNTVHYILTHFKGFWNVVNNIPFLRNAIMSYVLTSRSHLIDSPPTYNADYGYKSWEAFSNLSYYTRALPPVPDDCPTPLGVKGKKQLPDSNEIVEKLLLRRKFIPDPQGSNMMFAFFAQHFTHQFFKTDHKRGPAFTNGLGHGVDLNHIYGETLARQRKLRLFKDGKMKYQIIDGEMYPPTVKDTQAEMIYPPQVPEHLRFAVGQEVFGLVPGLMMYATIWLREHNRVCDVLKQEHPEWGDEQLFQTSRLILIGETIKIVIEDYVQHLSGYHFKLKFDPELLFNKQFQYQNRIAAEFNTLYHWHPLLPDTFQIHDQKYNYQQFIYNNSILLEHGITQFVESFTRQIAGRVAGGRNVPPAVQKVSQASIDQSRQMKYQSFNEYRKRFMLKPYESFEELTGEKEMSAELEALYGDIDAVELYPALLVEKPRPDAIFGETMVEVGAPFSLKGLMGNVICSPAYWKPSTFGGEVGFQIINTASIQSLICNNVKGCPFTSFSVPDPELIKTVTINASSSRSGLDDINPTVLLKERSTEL
The experiment in a line: Inhibition of COX-2. Format: biochemical. The settings on record: for SI: SI=IC50 (COX-1)/IC50 (COX-2); for IC50: ± SD.
From the text: as §1

Data set [6] concerns gastric mucosa. The conditions noted are these: mouse, in vivo.
Protocol: (§2) The ulcerogenic liability of conjugates was determined in albino mice following a standard method. Animals of either sex (pregnant females were excluded) weighing 20-25 g were divided into 8 groups of 6 animals each. The animals fasted 18 h before drug administration. […] The control group animals were given water with a few drops of Tween 80. The animals were sacrificed by cervical dislocation and the stomach was removed, opened along the greater curvature, and rinsed with saline. The gastric mucosa was examined with a magnifying lens (10×) for the presence of lesions and erosions. The ulcer index was calculated (Table 4) and the degree of ulcerogenic effect was expressed in terms of: (1) the percentage incidence of ulcers divided by 10; (2) average number of ulcers per stomach; and (3) average severity of ulcers. The ulcer index is the value that resulted from the sum of the above three values.
Data set [7] has as its system gastric mucosa. The experiment in a line: ulcerogenic liability. The settings on record: for ulcers or erosions to the gastric / ulcerogenic liability (in words): mice; for ulcers or erosions to the gastric / ulcerogenic liability (in words) / % Incidence of ulcer divided by 10 / Average of ulcer number / Average severity of ulcer / Number of animals with ulcer: oral; for % Incidence of ulcer divided by 10 / Average of ulcer number / Average severity of ulcer / Number of animals with ulcer: three successive days, 10 mg/kg indomethacin mol equivalent; for Number of animals with ulcer: 6 animals; for Ulcer index: sum of the three values.
Protocol: as §2

The subject of data set [8] is LPS-stimulated RAW264.7 macrophages. The experiment in a line: NO production (nitrite, Griess method) in LPS-stimulated RAW264.7. Format: cell-based. The conditions noted are these: LPS 10 ng/mL. A general note: The Griess reaction detects nitrite, a stable product of nitric oxide.
Protocol: The Griess method was used to determine the nitrite concentration in cell culture medium. […] The next day, a volume of 150 μL of the cell supernatant was transferred to a new 96-well plate and 130 μL of deionized water was added on top of it. Lastly, a volume of 20 μL of Griess reagent was added to the cell supernatant and incubated for 30 min in the dark at room temperature. Griess reagent was prepared according to instructions: 1:1 ratio of N-1-naphthyl-ethylenediamine (0.1%) and phosphoric acid (5%) in sulphanilamide (1%) in distilled water. […] The concentration of nitrite was determined using a NaNO2 standard curve.
The nitrite production in the supernatant in the culture medium was measured using Greiss reaction.
The test system of data set [9] is RAW264.7 macrophages. Kind of data set: cell viability, MTT assay. Format: cell-based. The conditions noted are these: LPS-stimulated cells treated, FIG. 2B. The method, then:
To ensure that the inflammatory response is not due to cell toxicity, cell viability measurements were done using MTT colorimetric assay. On the same cell cultured 96-well plate from the previous experiment, 100 μL of 1 mg/mL MTT solution was added to the adherent RAW264.7 macrophages cells at 37° C. and incubated for 2 h. After that, 100 μL of DMSO was added to the wells to dissolve insoluble formazan crystals. Absorbance was measured spectrophotometrically at 540 nm using a NanoSPECTROstar microplate reader (BMG LABTECH, Germany). Cell viability was then calculated as a percentage of untreated control.
Cytotoxicity of the macrophages was evaluated using MTT assay.

The mark [10] stands for this setting: 10 mg/kg indomethacin mol equivalent i.p.

Chain of COX-1 (P05979 whole entry): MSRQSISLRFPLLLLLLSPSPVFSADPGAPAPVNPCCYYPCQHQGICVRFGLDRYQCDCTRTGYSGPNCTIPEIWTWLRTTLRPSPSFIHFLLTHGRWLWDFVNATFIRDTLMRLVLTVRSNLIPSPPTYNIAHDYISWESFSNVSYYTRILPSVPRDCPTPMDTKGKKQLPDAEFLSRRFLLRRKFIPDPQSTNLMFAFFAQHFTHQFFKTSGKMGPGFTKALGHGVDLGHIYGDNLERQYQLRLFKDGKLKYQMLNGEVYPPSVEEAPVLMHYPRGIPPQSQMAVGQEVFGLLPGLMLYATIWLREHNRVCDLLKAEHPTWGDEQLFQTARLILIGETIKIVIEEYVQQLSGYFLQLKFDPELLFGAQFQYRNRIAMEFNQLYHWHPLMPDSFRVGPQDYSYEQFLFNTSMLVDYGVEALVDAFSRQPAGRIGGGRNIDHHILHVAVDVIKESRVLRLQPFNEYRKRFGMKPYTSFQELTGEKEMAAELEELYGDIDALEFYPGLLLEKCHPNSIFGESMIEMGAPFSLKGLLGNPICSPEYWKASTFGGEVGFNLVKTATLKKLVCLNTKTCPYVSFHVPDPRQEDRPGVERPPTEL

Broadly, the IC50 is the midpoint of a concentration-inhibition curve. Higher therefore signals weaker potency in that assay. `C#CCOC(=O)C(C)c1ccc(CC(C)C)cc1` (stereo not drawn) [Compound 3, prop-2-yn-1-yl 2-(4-isobutylphenyl) propanoate] returned a Potency in data set [1] of 100.0%. Also, the “Writing reflex ± SE” value in data set [1] (number of writhing counted for 30 min, 10 mg/kg indomethacin mol equivalent i.p.) stood at 11.3 ± 0.9. The “% Inhibition/protection” value in [1] (setting [10]) worked out at 71.8%. Moreover, in [2] (After 30 min.), the “Latency period ± SE” value came out at 10.37 s and the “% Protection” value is on record as “(55.2) %”. Moreover, in data set [2] (After 60 min.), the “Latency period ± SE” value amounted to 10.78 s and the “% Protection” value is recorded as 2.1** (48.3) %. In data set [2] (After 90 min.), the “Latency period ± SE” value stood at 10.62 ± 2.2 s and the “% Protection” value is given as “(19.2) %”. In addition, in data set [2] (After 120 min.), the “Latency period ± SE” value amounted to 10.35 ± 1.7 s and the “% Protection” value was “(14.9) %”. Also, in [2], the Potency stood at 26.4%. Also, the “toxic symptoms and mortality” value in data set [3] is reported as “No toxic symptoms or mortality”. In data set [4], this compound displayed an IC50 of 19.4 ± 0.55 µM. For the same compound, in data set [5], the SI is listed as 2.262 and the 50% inhibitory concentration (IC50) stood at 8.6 ± 0.24 µM. The Ulcer index in data set [6] came to 4.33. For the same compound, in data set [6] (po, 10 mg/kg), the “% Incidence of ulcer divided by 10” value is 3.33, the “Average of ulcer number” value was found to be 0.33, the “Average severity of ulcer” value was found to be 0.67 and the “Number of animals with ulcer” value is on record as 2/6.

As to `CC(C)Cc1ccc(C(C)C(=O)OCc2cn(-c3ccc(Cl)cc3)nn2)cc1` (stereo not drawn) [Compound 5b, (1-(4-Chlorophenyl)-1H-1,2,3-triazol-4-yl)methyl 2-(4-isobutylphenyl)propanoate], in data set [1], the “1/(observed property)” value stood at 0.01143 and the Observed property came to 87.5. For the same compound, the “% Inhibition/protection” value in [1] (setting [10]) was 87.5%. The same compound returned an Observed property in [2] of 27.1. Also, in data set [4], the IC50 was 119 ± 3.4 µM. For the same compound, in data set [7], the “ulcers or erosions to the gastric / ulcerogenic liability (in words)” value is “none and No ulcerogenic liability”; the “% Incidence of ulcer divided by 10” value came to 0; the “Average of ulcer number” value stood at 0; the “Average severity of ulcer” value was found to be 0. Besides, in data set [7], the “Number of animals with ulcer” value is 0 and the Ulcer index amounted to 0.

On to `Cc1ccc(-n2cc(COC(=O)C(C)c3ccc(CC(C)C)cc3)nn2)cc1` (stereo not drawn) [Compound 5d, (1-(p-Tolyl)-1H-1,2,3-triazol-4-yl)methyl 2-(4-isobutylphenyl)propanoate], for which, in data set [1], the “1/(observed property)” value is 0.01212 and the Observed property was determined as 82.5. The Observed property in data set [2] turned out to be 1.2. The midpoint of inhibition in [4], the IC50, lay at 9.64 ± 0.27 µM. Also, in data set [5], the SI was found to be 2.158 and the midpoint of inhibition, the IC50, lay at 4.47 ± 0.13 µM. In addition, in data set [7], the “ulcers or erosions to the gastric / ulcerogenic liability (in words)” value was “none and No ulcerogenic liability”; the “% Incidence of ulcer divided by 10” value is reported as 0; the “Average of ulcer number” value is 0; the “Average severity of ulcer” value worked out at 0. Moreover, in data set [7], the “Number of animals with ulcer” value is on record as 0 and the Ulcer index is recorded as 0.

In the case of `COc1ccccc1-n1cc(COC(=O)C(C)c2ccc(CC(C)C)cc2)nn1` (stereo not drawn) [Compound 5e, (1-(2-Methoxyphenyl)-1H-1,2,3-triazol-4-yl)methyl 2-(4-isobutylphenyl)propanoate], in [1], the “1/(observed property)” value was 0.0158 and the Observed property was 63.3. The Observed property in data set [2] worked out at 28. This compound came in with an IC50 in data set [4] of 5.42 µM. In [5], this compound yielded an SI of 0.387 and an IC50 of 14 ± 0.4 µM. The “decrease in NO production in comparison to LPS-stimulated cells (in words)” value in [8] is recorded as “insignificant decrease”. In data set [7], the “ulcers or erosions to the gastric / ulcerogenic liability (in words)” value is “none and No ulcerogenic liability”; the “% Incidence of ulcer divided by 10” value came to 0; the “Average of ulcer number” value turned out to be 0; the “Average severity of ulcer” value amounted to 0. Moreover, in data set [7], the “Number of animals with ulcer” value worked out at 0 and the Ulcer index is 0.

On to `COc1ccc2c(c1)c(CC(=O)O)c(C)n2C(=O)c1ccc(Cl)cc1` [Indo, indomethacin, reference compound], for which the Potency in data set [1] is 100.0%; in data set [1] (listed as indomethacin), 100%; in [2] it was 100%. Further, the “% Protection” value in data set [2] (After 30 min.) is “(87.1) %”; in data set [2] (After 60 min.), 1.6** (80.9) %; in data set [2] (After 90 min.) it was “(57.9) %”; in [2] (After 120 min.) it was “(56.5) %”. In [9], the “cytotoxicity (MTT) in comparison to control” value is on record as “no significant cytotoxicity”. Besides, in data set [7], the “% Incidence of ulcer divided by 10” value is reported as 10. Further, in [7], the “Average of ulcer number” value came to 2. Moreover, in [7], the “Average severity of ulcer” value came to 1.67. The “Number of animals with ulcer” value in data set [7] is listed as 6/6.
